Laboratory results taken from patent US6777442B2, “Diphenyl derivatives” (Bayer Aktiengesellschaft, priority 2001, dated 2004).

Test: T3 promoter assay cell test (luciferase reporter)
Format: cell-based
Details: Homo sapiens; HepG2 cells, luciferase induction, costimulator retinoic acid, incubation 48 or 72 hours
Protocol: The activity of the compounds according to the invention can be examined, for example, in vitro by the known T3 promoter assay cell test, described below:
The test is carried out using a stabily transfected human HepG2 hepatocarcinoma cell which expresses a luciferase gene under the control of a thyroid-hormone-regulated promoter. The vector used for transfection carries, upstream of the luciferase gene, a minimal thymidine kinase promoter with a thyroid-hormone-responsive element (TRE) comprising two inverted palindromes of in each case 12 bp and one 8 bp spacer.
For the test, the cell cultures are sown in 96-well plates in Eagle's Minimal Essential Medium, with the following additives: glutamine, tricine, [N-(tris-hydroxymethyl)-methyl)glycine], sodium pyruvate, non-essential amino acids (L-Ala, L-Asn, L-Asp, L-Pro, L-Ser, L-Glu, Gly), insulin, selenium and transferrin. The cultures are grown at 37° C. in a 10% CO2 atmosphere for 48 hours. Serial dilutions of test substance or reference compound (T3, T4) and the costimulator retinoic acid are then added to the test cultures, which are then incubated as above for a further 48 or 72 hours. […] To determine the luciferase, induced by T3 or other substances, the cells are then lyzed by addition of a triton- and luciferin-containing buffer (from Promega) and immediately measured luminometrically. For each compound, the EC50 is calculated. […]

Work on `Cc1cc(OCC(=O)O)cc(C)c1Cc1ccc(O)c(S(=O)(=O)c2ccc(F)cc2)c1` [Example 2, (4-{3-[(4-Fluorophenyl)sulphonyl]-4-hydroxybenzyl}-3,5-dimethylphenoxy)acetic acid] yielded an EC50 of 2 nM.
